Patent publication US7786141B2 (Vertex Pharmaceuticals Incorporated, priority 2004, dated 2010)

Key:
[1] = molecular target: T1, M1 muscarinic receptor (Homo sapiens, UniProt P11229); test: Functional mobilization of intracellular calcium (FLIPR) in M1-CHO cells; type: cell-based; conditions: M1-CHO cells, calcium mobilization (FLIPR); for Emax: read-out: M1 Efficacy
T1 construct: expressed in transfected cells; host or cells: CHO (M1-CHO)
T1 sequence (P11229 1-460): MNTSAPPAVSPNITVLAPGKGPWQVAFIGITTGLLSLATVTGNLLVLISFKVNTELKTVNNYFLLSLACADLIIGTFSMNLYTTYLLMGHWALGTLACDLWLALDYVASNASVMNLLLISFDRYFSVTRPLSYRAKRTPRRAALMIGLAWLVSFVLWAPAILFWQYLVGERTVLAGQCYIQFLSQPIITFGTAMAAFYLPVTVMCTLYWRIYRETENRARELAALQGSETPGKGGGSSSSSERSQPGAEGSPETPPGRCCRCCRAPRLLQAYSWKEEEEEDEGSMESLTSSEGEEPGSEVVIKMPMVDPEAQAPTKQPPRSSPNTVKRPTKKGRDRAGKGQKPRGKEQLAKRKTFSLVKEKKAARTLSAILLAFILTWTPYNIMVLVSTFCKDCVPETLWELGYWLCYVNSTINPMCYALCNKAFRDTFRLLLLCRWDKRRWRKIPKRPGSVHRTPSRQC
Outline: (§1)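 Measured via Fluo-3 fluorescence on a FLIPR, CHO cells with either muscarinic subtype received compound in 0.5% DMSO. Antagonism was assessed after 15 min pre-incubation followed by carbachol at each subtype's EC80; agonism from compound addition alone.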

[2] = molecular target: T2, M4 muscarinic receptor (Homo sapiens, UniProt P08173); test: Functional mobilization of intracellular calcium (FLIPR) in M4-CHO cells; type: cell-based; conditions: M4-CHO cells, calcium mobilization (FLIPR); for Emax: read-out: M4 Efficacy
T2 construct: expressed in transfected cells; host or cells: CHO (M4-CHO)
T2 sequence (P08173 1-479): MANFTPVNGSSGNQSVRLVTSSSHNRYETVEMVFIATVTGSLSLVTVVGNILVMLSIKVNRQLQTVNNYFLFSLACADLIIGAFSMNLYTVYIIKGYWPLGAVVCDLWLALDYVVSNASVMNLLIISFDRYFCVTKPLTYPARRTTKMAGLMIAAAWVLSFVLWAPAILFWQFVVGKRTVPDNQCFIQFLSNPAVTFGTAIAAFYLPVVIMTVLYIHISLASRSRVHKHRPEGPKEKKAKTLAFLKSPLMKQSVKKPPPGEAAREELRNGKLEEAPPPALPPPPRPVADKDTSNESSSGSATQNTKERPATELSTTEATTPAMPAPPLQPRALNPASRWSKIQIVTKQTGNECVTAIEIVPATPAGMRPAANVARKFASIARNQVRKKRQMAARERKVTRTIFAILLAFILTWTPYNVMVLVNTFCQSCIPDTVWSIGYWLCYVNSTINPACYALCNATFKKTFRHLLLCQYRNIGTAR
Outline: as §1

Structure (SMILES)	EC50 [1]	Emax [1]	EC50 [2]	Emax [2]
CC(=O)N1CC2(CCN(C3CCN(C(=O)OC(C)C)CC3)CC2)c2cc(C)ccc21 [compound 380]	< 100 nM	65 to 85%	100 to 1000 nM	65 to 85%
CCOC(=O)N1CCC(N2CCC3(CC2)CN(C(C)=O)c2c(F)cccc23)CC1 [compound 381]	< 100 nM	65 to 85%	> 1000 nM	< 65%
Cc1ccc2c(c1)C1(CCN(CC3CC4CCC3C4)CC1)CN2C(=O)OC(C)(C)C (centres unmarked) [compound 382]	< 100 nM	65 to 85%	> 1000 nM	65 to 85%
COC(=O)N1C2CCC1CC(N1CCC3(CC1)CN(S(C)(=O)=O)c1ccc(F)cc13)C2 (centres unmarked) [compound 383]	< 100 nM	65 to 85%	100 to 1000 nM	< 65%
CCOC(=O)N1CCC(N2CCC3(CC2)CN(C(=O)c2ccccc2)c2ccc(F)cc23)CC1 [compound 384]	100 to 1000 nM	< 65%	> 1000 nM	< 65%
CC(=O)CN1CC2(CCN(C[C@@H]3C[C@H]4C=C[C@H]3C4)CC2)c2cc(F)ccc21 [compound 385]	100 to 1000 nM	65 to 85%	> 1000 nM	< 65%
CCCOC(=O)N1C2CCC1CC(N1CCC3(CC1)CN(C(=O)OC)c1ccc(F)cc13)C2 (centres unmarked) [compound 386]	100 to 1000 nM	< 65%	100 to 1000 nM	< 65%
CC(=O)N1CC2(CCN(C3CCCCC3)CC2)c2cc(F)ccc21 [compound 387]	< 100 nM	65 to 85%	100 to 1000 nM	< 65%
CS(=O)(=O)N1CC2(CCN(C3CC4CCC(C3)N4C(=O)O[C@H]3CCOC3)CC2)c2cc(F)ccc21 (some centres unmarked) [compound 388]	< 100 nM	65 to 85%	> 1000 nM	< 65%
CCCOC(=O)N1C2CCC1CC(N1CCC3(CC1)CN(C(=O)C1CC1)c1ccc(F)cc13)C2 (centres unmarked) [compound 389]	100 to 1000 nM	65 to 85%	> 1000 nM	< 65%
CCOC(=O)N1C2CCC1CC(N1CCC3(CC1)CN(C(=O)C(C)C)c1ccc(F)cc13)C2 (centres unmarked) [compound 390]	< 100 nM	65 to 85%	> 1000 nM	< 65%
CCOC(=O)N1CCC(N2CCC3(CC2)CN(CCOC)c2ccc(F)cc23)CC1 [compound 391]	100 to 1000 nM	< 65%	> 1000 nM	< 65%
CC(=O)NC1CC2(CCN(C[C@H]3C[C@H]4C=C[C@H]3C4)CC2)c2ccccc21 (some centres unmarked) [compound 392]	< 100 nM	65 to 85%	> 1000 nM	< 65%
CC(=O)N1CC2(CCN(CC3CCCCC3)CC2)c2cc(F)ccc21 [compound 393]	< 100 nM	65 to 85%	> 1000 nM	< 65%
CC(=O)N1CC2(CCN(C3CCN(C(=O)OCCF)C3)CC2)c2cc(F)ccc21 (centres unmarked) [compound 394]	< 100 nM	< 65%	100 to 1000 nM	< 65%
CC(=O)N1CC2(CCN(C3CCCN(C(=O)OC(C)C)CC3)CC2)c2cc(F)ccc21 (centres unmarked) [compound 395]	< 100 nM	< 65%	> 1000 nM	< 65%
CCOC(=O)N1CCC(N2CCC3(CC2)CN(C(=O)c2c(F)cccc2F)c2ccc(F)cc23)CC1 [compound 396]	100 to 1000 nM	< 65%	> 1000 nM	< 65%
Cc1ccc2c(c1)C1(CCN(C3CC4CCC(C4)C3)CC1)CN2 (centres unmarked) [compound 397]	100 to 1000 nM	65 to 85%	> 1000 nM	< 65%
CC(=O)N1CC2(CCN(C3CCN(C(=O)O[C@H]4CCOC4)CC3)CC2)c2cc(C)ccc21 [compound 398]	100 to 1000 nM	< 65%	> 1000 nM	< 65%
CC(=O)N[C@H]1CC2(CCN(CC3CCN(C(=O)OC(C)C)CC3)CC2)c2ccccc21 [compound 399]	100 to 1000 nM	65 to 85%	100 to 1000 nM	< 65%
